Measurements reported in US20250059208A1, “KRAS MODULATING COMPOUNDS” (priority 2023, published 2025).
Read-outs that look alike come from different tables or passages of the source.

Legend:
[1] = target: GDP-loaded KRAS-G12V (Homo sapiens, UniProt P01116, G12V); test: KRAS (GDP) biochemical TR-FRET probe displacement assay, G12V; format: binding; conditions: 2 hours at room temperature
Protocol: (§1) • Compounds were tested for binding to GDP-loaded wild-type KRAS (WT), KRAS-G12C, KRAS-G12D, and KRAS-G12V in a 384-well assay format using a TR-FRET probe displacement assay in buffer consisting of 50 mM Hepes (pH 7.4), 150 mM NaCl. 5 mM MgCl2 and 0.005% Tween-20. 0.03 nM KRAS was used in this assay with 0.02 nM Eu-streptavidin and 12 nM Cy-5 labelled probe. Compounds were serially diluted (1:3) in DMSO. The LabCyte ECHO Acoustic dispenser was used to pre-spot the assay plates (384-well Non-Binding Surface plates, Corning, Catalog #3824) with 50 nL of compound. 5 μL of 2× enzyme concentration was added to the pre-spotted plates and incubated for 30 minutes before adding 5 μL of 2× concentration of Eu-streptavidin and Cy-5 labelled probe (10 μL final reaction volume). The plates were incubated at room temperature for 2 hours before measuring TR-FRET ratio (665 nm/615 nm) on the Envision multimode plate reader. The ratios were normalized to a positive (saturating concentration of known inhibitor) and negative (DMSO) control and plotted against the log of compound concentration. […]

[2] = tested on: cellular pERK in Kuramochi (WT KRAS) cell-line; test: Cell based pERK assay, Kuramochi; conditions: Kuramochi (WT KRAS) cells, 2 hours compound incubation, HTRF Phospho-ERK1/2
Protocol: (§2) Compounds were tested in a 384-well assay format for their ability to inhibit cellular pERK in Kuramochi (WT KRAS), MIA-PaCa-2 (KRAS-G12C), ASPC-1 (KRAS G12D), and NCI-H441 (KRAS-G12V) cell-lines. Compounds were serially diluted (1:3) in DMSO. On day −1, 80 μL of cells were plated per well in the 384 well tissue-culture plates (Greiner: Cat #781080) to seed 5000 cells per wells of AsPC-1 or 7500 cells of MIA-PaCa-2, NCI-H441, and Kuramochi cell lines in RPMI (Corning: Cat #10-040-CM) with 10% fetal bovine serum (FBS) (HyClone: Cat #SH30071-03) and IX penicillin-streptomycin-glutamate (PSG) (Corning: Cat #30-009-C1) for […] and Kuramochi cell lines and DMEM (Corning: Cat #15-018-CM) with 10% FBS and 1×PSG for MIA-PaCa-2 cell line. The plates were then incubated overnight at 37° C. and 5% CO2. On day 0, 400 nL of compound/well was added into the cell plates and mixed 5 times by pipetting using a Beckmann Biomek FX. The cell plates were then incubated for 2 hours at 37° C. and 5% CO2. HTRF Advanced Phospho-ERK1/2 (THR202/TYR204) Detection Kits (PerkinElmer: Cat #64AERPEG) were used to prepare the lysis and detection solution according to manufacturer protocol. Following the 2 hour incubation, 70 μL of medium was aspirated from the plates and 10 μL of lysis and detection solution was added to the plates using a Biotek EL406 washer and dispenser. Plates were sealed and stored overnight at room temperature. HTRF ratio (665 nm/615 nm) was read by Envision multimode reader (PerkinElmer) the next day. The TR-FRET ratios were normalized to a positive (saturating concentration of known inhibitor) and negative (DMSO) control and plotted against the log of compound concentration.

[3] = target: GDP-loaded KRAS-G12C (Homo sapiens, UniProt P01116, G12C); test: KRAS (GDP) biochemical TR-FRET probe displacement assay, G12C; format: binding; conditions: 2 hours at room temperature
Protocol: as §1

[4] = tested on: cellular pERK in NCI-H441 (KRAS-G12V) cell-line; test: Cell based pERK assay, NCI-H441; conditions: Homo sapiens; NCI-H441 (KRAS-G12V) cells, 2 hours compound incubation, HTRF Phospho-ERK1/2
Protocol: as §2

[5] = target: GDP-loaded KRAS-G12D (Homo sapiens, UniProt P01116, G12D); test: KRAS (GDP) biochemical TR-FRET probe displacement assay, G12D; format: binding; conditions: 2 hours at room temperature
Protocol: as §1

[6] = target: GDP-loaded wild-type KRAS (WT) (Homo sapiens, UniProt P01116); test: KRAS (GDP) biochemical TR-FRET probe displacement assay, WT; format: binding; conditions: 2 hours at room temperature
Protocol: as §1

[7] = tested on: cellular pERK in MIA-PaCa-2 (KRAS-G12C) cell-line; test: Cell based pERK assay, MIA-PaCa-2; conditions: Homo sapiens; MIA-PaCa-2 (KRAS-G12C) cells, 2 hours compound incubation, HTRF Phospho-ERK1/2; read-out: MIAPaCa2 pERK EC50
Protocol: as §2

[8] = tested on: cellular pERK in ASPC-1 (KRAS G12D) cell-line; test: Cell based pERK assay, ASPC-1; conditions: ASPC-1 (KRAS G12D) cells, 2 hours compound incubation, HTRF Phospho-ERK1/2
Protocol: as §2

Sequence of GDP-loaded KRAS-G12C (P01116 1-188 isoform P01116-2 G12C): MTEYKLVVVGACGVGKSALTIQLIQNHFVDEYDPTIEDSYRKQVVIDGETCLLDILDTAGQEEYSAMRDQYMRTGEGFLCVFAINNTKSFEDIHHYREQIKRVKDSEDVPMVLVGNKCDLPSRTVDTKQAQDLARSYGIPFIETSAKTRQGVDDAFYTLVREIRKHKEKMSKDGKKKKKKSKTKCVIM
Sequence of GDP-loaded KRAS-G12D (P01116 1-188 isoform P01116-2 G12D): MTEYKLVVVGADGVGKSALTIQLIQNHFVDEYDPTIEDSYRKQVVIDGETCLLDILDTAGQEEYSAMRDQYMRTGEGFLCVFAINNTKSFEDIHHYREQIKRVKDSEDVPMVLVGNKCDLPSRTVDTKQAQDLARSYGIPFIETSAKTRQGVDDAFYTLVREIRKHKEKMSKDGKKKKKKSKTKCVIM
Sequence of GDP-loaded wild-type KRAS (WT) (P01116 1-188 isoform P01116-2): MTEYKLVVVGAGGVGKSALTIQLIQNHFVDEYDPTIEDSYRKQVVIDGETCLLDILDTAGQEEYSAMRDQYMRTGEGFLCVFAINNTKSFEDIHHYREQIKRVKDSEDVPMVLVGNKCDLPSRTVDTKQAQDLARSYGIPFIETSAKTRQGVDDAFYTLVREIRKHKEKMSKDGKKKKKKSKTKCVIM
Sequence of GDP-loaded KRAS-G12V (P01116 1-188 isoform P01116-2 G12V): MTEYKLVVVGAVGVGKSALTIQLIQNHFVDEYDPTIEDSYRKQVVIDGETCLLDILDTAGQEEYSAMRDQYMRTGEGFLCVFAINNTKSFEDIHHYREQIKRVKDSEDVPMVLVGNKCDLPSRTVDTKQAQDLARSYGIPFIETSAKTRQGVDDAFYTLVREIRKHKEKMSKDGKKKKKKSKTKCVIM

With `Cc1cc(N)nc(-c2c(F)cc3c(N4CC5(F)CCC(F)(C4)N5)nc(OC[C@@]45CCCN4C[C@H](F)C5)nc3c2F)c1C(F)(F)F` [Example 6-1, 6-(4-(1,5-difluoro-3,8-diazabicyclo[3.2.1]octan-3-yl)-6,8-difluoro-2-(((2R,7aS)-2-fluorotetrahydro-1H-pyrrolizin-7a(5H)-yl)methoxy)quinazolin-7-yl)-4-methyl-5-(trifluoromethyl)pyridin-2-amine] the IC50 [1] was greater than 100 nM, the EC50 ([2]; 2 h) was 48.4 nM and the IC50 [3] was greater than 100 nM. It also gave an EC50 [4] of 616 nM, an IC50 [5] greater than 100 nM and an IC50 [6] greater than 100 nM. It also gave an EC50 [7] of 350 nM and an EC50 ([8]; Homo sapiens, ASPC1, 2 h) greater than 1000 nM.
With `C#Cc1c(F)ccc2cc(N)nc(-c3c(Cl)cc4c(N5CC6(F)CCC(F)(C5)N6)nc(OC[C@@]56CCCN5C[C@H](F)C6)nc4c3F)c12` [Example 7-5] the IC50 [1] was greater than 100 nM, the EC50 ([2]; 2 h) was 21.8 nM and the IC50 [3] was greater than 100 nM. It also gave an EC50 [4] of 548 nM, an IC50 [5] greater than 100 nM and an IC50 [6] greater than 100 nM. For the same compound, the EC50 [7] was 179 nM and the EC50 ([8]; Homo sapiens, ASPC1, 2 h) was 735 nM.
`C#Cc1c(F)ccc2cc(O)cc(-c3ncc4c(N5CC6(F)CCC(F)(C5)N6)nc(OC[C@@]56CCCN5[C@H](COc5cc(C(F)(F)F)cnn5)CC6)nc4c3F)c12` [Example 2-4] showed an IC50 [1] of 0.24 nM, an EC50 ([2]; 2 h) of 5.56 nM and an IC50 [3] of 0.27 nM. The EC50 [4] was 9.86 nM, the IC50 [5] was 0.36 nM and the IC50 [6] was 0.21 nM. The EC50 [7] was 0.29 nM and the EC50 ([8]; Homo sapiens, ASPC1, 2 h) was 14.9 nM.
With `Cc1cc(-c2c(Cl)cc3c(N4CC5(F)CCC(F)(C4)N5)nc(OC[C@@]45CCCN4C[C@H](F)C5)nc3c2F)c2cccnc2c1N` [Example 2-9] the IC50 [1] was greater than 100 nM, the EC50 ([2]; 2 h) was greater than 1000 nM and the IC50 [3] was greater than 100 nM. For the same compound, the EC50 [4] was greater than 1000 nM, the IC50 [5] was greater than 100 nM and the IC50 [6] was greater than 100 nM. For the same compound, the EC50 [7] was greater than 1000 nM and the EC50 ([8]; Homo sapiens, ASPC1, 2 h) was greater than 1000 nM.
In the case of `C#Cc1c(F)ccc2cc(O)cc(-c3ncc4c(N5CC6(F)CCC(F)(C5)N6)nc(OC[C@@]56CCCN5[C@H](COc5cc(C(F)(F)F)ncn5)CC6)nc4c3F)c12` [Example 2-3], the IC50 [1] is reported as 0.42 nM, the EC50 ([2]; 2 h) is reported as 2.55 nM and the IC50 [3] is reported as 0.4 nM. It also gave an EC50 [4] of 2.07 nM, an IC50 [5] of 0.55 nM and an IC50 [6] of 0.29 nM. It also gave an EC50 [7] of 0.19 nM and an EC50 ([8]; Homo sapiens, ASPC1, 2 h) of 2.15 nM.
With `C#Cc1c(F)ccc2cccc(-c3ncc4c(N5CC6(F)CCC(F)(C5)N6)nc(OC[C@@]56CCCN5C[C@H](F)C6)nc4c3F)c12` [Example 1-2] the IC50 [1] was 84 nM, the EC50 ([2]; 2 h) was 11.9 nM and the IC50 [3] was 38 nM. It also gave an EC50 [4] of 66 nM, an IC50 [5] of no less than 100 nM and an IC50 [6] of 26.6 nM. It also gave an EC50 [7] of 32.2 nM and an EC50 ([8]; Homo sapiens, ASPC1, 2 h) of 194 nM.
`N#Cc1c(N)sc2c(F)ccc(-c3c(Cl)cc4c(N5CC6(F)CCC(F)(C5)N6)nc(OC[C@@]56CCCN5C[C@H](F)C6)nc4c3F)c12` (single isomer, unassigned) [Example 8-2] gave an IC50 [1] of 50.1 nM, an EC50 [2] of 79.8 nM and an IC50 [3] of 23.3 nM. For the same compound, the EC50 [4] was 256 nM, the IC50 [5] was 43 nM and the IC50 [6] was 3.31 nM. It also gave an EC50 [7] of 65.4 nM and an EC50 ([8]; read-out: AsPC1 pERK EC50) of 614 nM.
With `C#Cc1c(F)ccc2cc(N)cc(-c3ncc4c(N5CC6(F)CCC(F)(C5)N6)nc(OC[C@@]56CCCN5C[C@H](F)C6)nc4c3F)c12` [Example 5-1, 4-(4-(1,5-difluoro-3,8-diazabicyclo[3.2.1]octan-3-yl)-8-fluoro-2-(((2R,7aS)-2-fluorotetrahydro-1H-pyrrolizin-7a(5H)-yl)methoxy)pyrido[4,3-d]pyrimidin-7-yl)-5-ethynyl-6-fluoronaphthalen-2-amine] the IC50 [1] was 7.59 nM, the EC50 ([2]; 2 h) was 2.94 nM and the IC50 [3] was 2.78 nM. It also gave an EC50 [4] of 8.41 nM, an IC50 [5] of 15.1 nM and an IC50 [6] of 2.31 nM. For the same compound, the EC50 [7] was 4.99 nM and the EC50 ([8]; Homo sapiens, ASPC1, 2 h) was 25.9 nM.
Compound `C#Cc1c(F)ccc2cc(O)cc(-c3ncc4c(N5CC6(F)CCC(F)(C5)N6)nc(OC[C@@H]5CC[C@]6(COc7cc(C(F)(F)F)ncn7)CCCN56)nc4c3F)c12` [Example 2-11] has an IC50 [1] of 22.2 nM, an EC50 ([2]; 2 h) of 24.5 nM and an IC50 [3] of 16.8 nM. For the same compound, the EC50 [4] was 56.3 nM, the IC50 [5] was 11.6 nM and the IC50 [6] was 12.3 nM. It also gave an EC50 [7] of 5.79 nM and an EC50 ([8]; Homo sapiens, ASPC1, 2 h) of 54.5 nM.
With `C#Cc1c(F)ccc2cc(N)cc(-c3c(F)cc4c(N5CC6(F)CCC(F)(C5)N6)nc(OCC56CCCN5CCC6)nc4c3F)c12` [Example 2-10] the IC50 [1] was 4.17 nM, the EC50 ([2]; 2 h) was 5.34 nM and the IC50 [3] was 4.22 nM. It also gave an EC50 [4] of 49 nM, an IC50 [5] of 17.4 nM and an IC50 [6] of 3.67 nM. The EC50 [7] was 8.62 nM and the EC50 ([8]; Homo sapiens, ASPC1, 2 h) was 150 nM.
In the case of `N#Cc1c(N)sc2c(F)ccc(-c3c(Cl)cc4c(N5CC6(F)CCC(F)(C5)N6)nc(OC[C@@]56CCCN5C[C@H](F)C6)nc4c3F)c12` [Example 7-3], the IC50 [1] is reported as 5.09 nM, the EC50 ([2]; 2 h) is reported as 5.2 nM and the IC50 [3] is reported as 1.7 nM. For the same compound, the EC50 [4] was 4.82 nM, the IC50 [5] was 12.6 nM and the IC50 [6] was 0.63 nM. It also gave an EC50 [7] of 16.8 nM and an EC50 ([8]; Homo sapiens, ASPC1, 2 h) of 39.7 nM.
In the case of `Cc1cc(-c2c(F)cc3c(N4CC5(F)CCC(F)(C4)N5)nc(OC[C@@]45CCCN4C[C@H](F)C5)nc3c2F)c2cccnc2c1N` [Example 2-7], the IC50 [1] is reported as greater than 100 nM, the EC50 ([2]; 2 h) is reported as greater than 1000 nM and the IC50 [3] is reported as greater than 100 nM. The EC50 [4] was greater than 1000 nM, the IC50 [5] was greater than 100 nM and the IC50 [6] was greater than 100 nM. The EC50 [7] was greater than 1000 nM and the EC50 ([8]; Homo sapiens, ASPC1, 2 h) was greater than 1000 nM.
Work on `C#Cc1c(F)ccc2cc(N)cc(-c3ncc4c(N5CC6(F)CCC(F)(C5)N6)nc(OC[C@@]56CCCN5[C@H](COc5cc(C(F)(F)F)ncn5)CC6)nc4c3F)c12` [Example 5-2] yielded an IC50 [1] of 4.32 nM, an EC50 ([2]; 2 h) of 6.04 nM and an IC50 [3] of 1.38 nM. The EC50 [4] was 27.1 nM, the IC50 [5] was 10.3 nM and the IC50 [6] was 0.94 nM. It also gave an EC50 [7] of 3.24 nM and an EC50 ([8]; Homo sapiens, ASPC1, 2 h) of 63.9 nM.
Work on `Cc1cc(-c2ncc3c(N4CC5(F)CCC(F)(C4)N5)nc(OC[C@@]45CCCN4C[C@H](F)C5)nc3c2F)c2cccnc2c1N` [Example 2-8] yielded an IC50 [1] greater than 100 nM, an EC50 ([2]; 2 h) greater than 1000 nM and an IC50 [3] greater than 100 nM. For the same compound, the EC50 [4] was greater than 1000 nM, the IC50 [5] was greater than 100 nM and the IC50 [6] was greater than 100 nM. The EC50 [7] was greater than 1000 nM and the EC50 ([8]; Homo sapiens, ASPC1, 2 h) was greater than 1000 nM.
